Laboratory results published in patent US20140213513A1 (Sanofi, priority 2012, published 2014).
*1 amine or outer side, *2 acyl side, *3 side chain or, on linkers, in order; H or OH if unused. Where a SMILES comes first, the peptide text is derived from it. Side-chain parts run from the residue outwards. [ ]: non-standard residue; d: D form. The star is where a group is joined. γGlu = O=C(O)[C@H](CCC(=O)[*:2])N[*:1]; Stearoyl = CCCCCCCCCCCCCCCCCC(=O)*; Palmitoyl = CCCCCCCCCCCCCCCC(=O)*; Aib = CC(C)(N)C(=O)O

Columns and labels:
Type in all cases: cell-based
Settings in all cases: Table 7; cAMP formation
[1] = molecular target: T1, human GIP receptor (hGIP R) (Homo sapiens, UniProt P48546); assay: cAMP response of HEK-293 cells stably expressing human GIP receptor (HTRF)
T1 construct: expressed in transfected cells
T1 sequence (P48546 22-466): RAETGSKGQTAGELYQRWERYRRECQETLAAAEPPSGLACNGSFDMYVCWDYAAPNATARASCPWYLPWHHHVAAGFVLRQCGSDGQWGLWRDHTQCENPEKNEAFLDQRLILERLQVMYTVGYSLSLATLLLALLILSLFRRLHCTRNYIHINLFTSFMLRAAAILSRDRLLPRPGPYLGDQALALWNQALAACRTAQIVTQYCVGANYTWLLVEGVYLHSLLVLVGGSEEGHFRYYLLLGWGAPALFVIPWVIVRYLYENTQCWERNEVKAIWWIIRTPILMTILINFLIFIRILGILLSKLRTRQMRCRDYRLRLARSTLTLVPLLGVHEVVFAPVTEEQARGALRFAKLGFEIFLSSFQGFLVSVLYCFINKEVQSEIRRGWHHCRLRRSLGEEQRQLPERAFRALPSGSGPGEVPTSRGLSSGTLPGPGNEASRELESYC
How it was run: (§1)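 HTRF read-out of cellular cAMP after 30 min compound exposure at room temperature. Accutase-detached cells were suspended at 400000 cells/ml in HBSS buffer containing 20 mM HEPES, 0.1% BSA and 2 mM IBMX phosphodiesterase inhibitor.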

[2] = molecular target: T2, human glucagon receptor (hGLUC R) (Homo sapiens, UniProt P47871); assay: cAMP response of HEK-293 cells stably expressing human glucagon receptor (HTRF)
T2 construct: expressed in transfected cells
T2 sequence (P47871 26-477): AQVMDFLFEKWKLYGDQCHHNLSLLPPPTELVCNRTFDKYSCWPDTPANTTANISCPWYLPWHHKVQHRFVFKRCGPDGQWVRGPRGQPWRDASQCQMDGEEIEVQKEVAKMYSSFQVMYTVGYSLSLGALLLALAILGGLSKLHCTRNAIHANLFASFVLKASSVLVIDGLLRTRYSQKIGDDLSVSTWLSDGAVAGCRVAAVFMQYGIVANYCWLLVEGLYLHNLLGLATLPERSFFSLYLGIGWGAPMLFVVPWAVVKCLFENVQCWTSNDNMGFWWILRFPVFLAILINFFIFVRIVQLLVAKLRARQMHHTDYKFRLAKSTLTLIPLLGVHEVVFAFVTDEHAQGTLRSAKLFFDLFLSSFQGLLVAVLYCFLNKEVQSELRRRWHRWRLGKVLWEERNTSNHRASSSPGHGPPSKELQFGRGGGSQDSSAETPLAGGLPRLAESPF
How it was run: as §1

[3] = molecular target: T3, human GLP-1 receptor (hGLP-1 R) (Homo sapiens, UniProt P43220); assay: cAMP response of HEK-293 cells stably expressing human GLP-1 receptor (HTRF)
T3 construct: expressed in transfected cells
T3 sequence (P43220 24-463): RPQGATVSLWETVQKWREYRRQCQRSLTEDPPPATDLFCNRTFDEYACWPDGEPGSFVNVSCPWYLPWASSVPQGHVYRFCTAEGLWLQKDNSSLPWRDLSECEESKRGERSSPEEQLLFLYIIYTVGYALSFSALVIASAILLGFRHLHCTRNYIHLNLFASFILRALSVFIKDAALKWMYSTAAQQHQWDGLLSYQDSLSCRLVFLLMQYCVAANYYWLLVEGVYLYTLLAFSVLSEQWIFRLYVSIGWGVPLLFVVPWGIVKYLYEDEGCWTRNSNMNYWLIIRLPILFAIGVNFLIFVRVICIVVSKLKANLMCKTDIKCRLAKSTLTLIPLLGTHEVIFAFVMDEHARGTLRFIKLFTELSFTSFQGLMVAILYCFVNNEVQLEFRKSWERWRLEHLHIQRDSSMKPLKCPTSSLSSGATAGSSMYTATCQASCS
How it was run: as §1

Structure (SMILES)	EC50 [1]	EC50 [2]	EC50 [3]
CCCCCCCCCCCCCCCCCC(=O)N[C@@H](CCC(=O)NCCCC[C@H](NC(=O)[C@H](CCC(N)=O)NC(=O)[C@@H](NC(=O)[C@H](CO)NC(=O)[C@H](CC(C)C)NC(=O)[C@H](CC(=O)O)NC(=O)[C@H](CO)NC(=O)[C@@H](NC(=O)[C@H](Cc1ccccc1)NC(=O)[C@@H](NC(=O)CNC(=O)[C@H](CCC(=O)O)NC(=O)C(C)(C)NC(=O)[C@@H](N)Cc1ccc(O)cc1)[C@@H](C)O)[C@@H](C)O)[C@@H](C)CC)C(=O)N[C@@H](CCC(=O)O)C(=O)N[C@@H](CO)C(=O)N[C@@H](CCCCN)C(=O)N[C@@H](C)C(=O)N[C@@H](C)C(=O)NC(C)(C)C(=O)N[C@@H](CCC(=O)O)C(=O)N[C@@H](Cc1ccccc1)C(=O)N[C@H](C(=O)N[C@@H](CCC(=O)O)C(=O)N[C@@H](Cc1c[nH]c2ccccc12)C(=O)N[C@@H](CC(C)C)C(=O)N[C@@H](CCCCN)C(=O)N[C@@H](C)C(=O)NCC(=O)NCC(=O)N1CCC[C@H]1C(=O)N[C@@H](CO)C(=O)N[C@@H](CO)C(=O)NCC(=O)N[C@@H](C)C(=O)N1CCC[C@H]1C(=O)N1CCC[C@H]1C(=O)N1CCC[C@H]1C(=O)N[C@@H](CO)C(=O)N[C@@H](CCCCN)C(N)=O)[C@@H](C)CC)C(=O)O [SEQ ID NO: 16, Y-Aib-E-G-T-F-T-S-D-L-S-I-Q-K(yE-x70)-E-S-K-A-A-Aib-EFIEWLKAGGPSSGAPPPSK-NH2] (H-Y[Aib]EGTFTSDLSIQK([γGlu-Stearoyl])ESKAA[Aib]EFIEWLKAGGPSSGAPPPSK-NH2)	0.0156 nM	17 nM	0.007 nM
CCCCCCCCCCCCCCCCCC(=O)N[C@@H](CCC(=O)NCCCC[C@H](NC(=O)[C@H](CCC(N)=O)NC(=O)[C@@H](NC(=O)[C@H](CO)NC(=O)[C@H](CC(C)C)NC(=O)[C@H](CC(=O)O)NC(=O)[C@H](CO)NC(=O)[C@@H](NC(=O)[C@H](Cc1ccccc1)NC(=O)[C@@H](NC(=O)CNC(=O)[C@H](CCC(=O)O)NC(=O)C(C)(C)NC(=O)[C@@H](N)Cc1ccc(O)cc1)[C@@H](C)O)[C@@H](C)O)[C@@H](C)CC)C(=O)N[C@@H](CCC(=O)O)C(=O)N[C@@H](CO)C(=O)N[C@@H](CCCCN)C(=O)N[C@@H](C)C(=O)N[C@@H](C)C(=O)NC(C)(C)C(=O)N[C@@H](CCC(=O)O)C(=O)N[C@@H](Cc1ccccc1)C(=O)N[C@H](C(=O)N[C@@H](CCC(=O)O)C(=O)N[C@@H](Cc1c[nH]c2ccccc12)C(=O)N[C@@H](CC(C)C)C(=O)N[C@@H](CCCCN)C(=O)N[C@@H](C)C(=O)NCC(=O)NCC(=O)N1CCC[C@H]1C(=O)N[C@@H](CO)C(=O)N[C@@H](CO)C(=O)NCC(=O)N[C@@H](C)C(=O)N1CCC[C@H]1C(=O)N1CCC[C@H]1C(=O)N1CCC[C@H]1C(=O)N[C@@H](CO)C(N)=O)[C@@H](C)CC)C(=O)O [SEQ ID NO: 29, Y-Aib-E-G-T-F-T-S-D-L-S-I-Q-K(yE-x70)-E-S-K-A-A-Aib-E-F-I-E-W-L-K-A-G-G-P-S-S-G-A-P-P-P-S-NH2] (H-Y[Aib]EGTFTSDLSIQK([γGlu-Stearoyl])ESKAA[Aib]EFIEWLKAGGPSSGAPPPS-NH2)	0.013 nM	15 nM	0.0072 nM
CCCCCCCCCCCCCCCC(=O)N[C@@H](CCC(=O)NCCCC[C@H](NC(=O)[C@H](CCC(N)=O)NC(=O)[C@@H](NC(=O)[C@H](CO)NC(=O)[C@H](CC(C)C)NC(=O)[C@H](CC(=O)O)NC(=O)[C@H](CO)NC(=O)[C@@H](NC(=O)[C@H](Cc1ccccc1)NC(=O)[C@@H](NC(=O)CNC(=O)[C@H](CCC(N)=O)NC(=O)C(C)(C)NC(=O)[C@@H](N)Cc1ccc(O)cc1)[C@@H](C)O)[C@@H](C)O)[C@@H](C)CC)C(=O)N[C@@H](CCC(=O)O)C(=O)N[C@@H](CCCCN)C(=O)N[C@@H](Cc1ccc(O)cc1)C(=O)N[C@@H](C)C(=O)N[C@@H](C)C(=O)NC(C)(C)C(=O)N[C@@H](CCC(=O)O)C(=O)N[C@@H](Cc1ccccc1)C(=O)N[C@H](C(=O)N[C@@H](CCC(=O)O)C(=O)N[C@@H](Cc1c[nH]c2ccccc12)C(=O)N[C@@H](CC(C)C)C(=O)N[C@@H](CCCCN)C(=O)N[C@@H](CC(N)=O)C(=O)N[C@H](C(=O)NCC(=O)N1CCC[C@H]1C(=O)N[C@@H](CO)C(=O)N[C@@H](CO)C(=O)NCC(=O)N[C@@H](C)C(=O)N1CCC[C@H]1C(=O)N1CCC[C@H]1C(=O)N1CCC[C@H]1C(=O)N[C@@H](CO)C(N)=O)[C@@H](C)O)[C@@H](C)CC)C(=O)O [SEQ ID NO: 10, Y-Aib-Q-G-T-F-T-S-D-L-S-I-Q-K(yE-x53)-E-K-Y-A-A-Aib-E-F-I-E-W-L-K-N-T-G-P-S-S-G-A-P-P-P-S-NH2] (H-Y[Aib]QGTFTSDLSIQK([γGlu-Palmitoyl])EKYAA[Aib]EFIEWLKNTGPSSGAPPPS-NH2)	0.0144 nM	0.667 nM	0.0052 nM
CCCCCCCCCCCCCCCC(=O)N[C@@H](CCC(=O)NCCCC[C@H](NC(=O)[C@H](CCC(N)=O)NC(=O)[C@@H](NC(=O)[C@H](CO)NC(=O)[C@H](CC(C)C)NC(=O)[C@H](CC(=O)O)NC(=O)[C@H](CO)NC(=O)[C@@H](NC(=O)[C@H](Cc1ccccc1)NC(=O)[C@@H](NC(=O)CNC(=O)[C@H](CCC(N)=O)NC(=O)C(C)(C)NC(=O)[C@@H](N)Cc1ccc(O)cc1)[C@@H](C)O)[C@@H](C)O)[C@@H](C)CC)C(=O)N[C@@H](CCC(=O)O)C(=O)N[C@@H](CCCCN)C(=O)N[C@@H](CCCNC(=N)N)C(=O)N[C@@H](CC(C)C)C(=O)N[C@@H](C)C(=O)NC(C)(C)C(=O)N[C@@H](CCC(=O)O)C(=O)N[C@@H](Cc1ccccc1)C(=O)N[C@H](C(=O)N[C@@H](CCC(=O)O)C(=O)N[C@@H](Cc1c[nH]c2ccccc12)C(=O)N[C@@H](CC(C)C)C(=O)N[C@@H](CCCCN)C(=O)N[C@@H](CC(N)=O)C(=O)N[C@H](C(=O)NCC(=O)N1CCC[C@H]1C(=O)N[C@@H](CO)C(=O)N[C@@H](CO)C(=O)NCC(=O)N[C@@H](C)C(=O)N1CCC[C@H]1C(=O)N1CCC[C@H]1C(=O)N1CCC[C@H]1C(=O)N[C@@H](CO)C(N)=O)[C@@H](C)O)[C@@H](C)CC)C(=O)O [SEQ ID NO: 19, Y-Aib-Q-G-T-F-T-S-D-L-S-I-Q-K(yE-x53)-E-K-R-L-A-Aib-E-F-I-E-W-L-K-N-T-G-P-S-S-G-A-P-P-P-S-NH2] (H-Y[Aib]QGTFTSDLSIQK([γGlu-Palmitoyl])EKRLA[Aib]EFIEWLKNTGPSSGAPPPS-NH2)	0.0915 nM	0.137 nM	0.0085 nM
CCCCCCCCCCCCCCCC(=O)NCCCC[C@H](NC(=O)[C@H](CCC(N)=O)NC(=O)[C@@H](NC(=O)[C@H](CO)NC(=O)[C@H](CC(C)C)NC(=O)[C@H](CC(=O)O)NC(=O)[C@H](CO)NC(=O)[C@@H](NC(=O)[C@H](Cc1ccccc1)NC(=O)[C@@H](NC(=O)CNC(=O)[C@H](CCC(N)=O)NC(=O)C(C)(C)NC(=O)[C@@H](N)Cc1ccc(O)cc1)[C@@H](C)O)[C@@H](C)O)[C@@H](C)CC)C(=O)N[C@@H](CCC(=O)O)C(=O)N[C@@H](CCCCN)C(=O)N[C@@H](CCCNC(=N)N)C(=O)N[C@@H](C)C(=O)N[C@H](C(=O)NC(C)(C)C(=O)N[C@@H](CC(C)C)C(=O)N[C@@H](Cc1ccccc1)C(=O)N[C@H](C(=O)N[C@@H](CCC(=O)O)C(=O)N[C@@H](Cc1c[nH]c2ccccc12)C(=O)N[C@@H](CC(C)C)C(=O)N[C@@H](CCCCN)C(=O)N[C@@H](C)C(=O)NCC(=O)NCC(=O)N1CCC[C@H]1C(=O)N[C@@H](CO)C(=O)N[C@@H](CO)C(=O)NCC(=O)N[C@@H](C)C(=O)N1CCC[C@H]1C(=O)N1CCC[C@H]1C(=O)N1CCC[C@H]1C(=O)N[C@@H](CO)C(N)=O)[C@@H](C)CC)C(C)C [SEQ ID NO: 25, Y-Aib-Q-G-T-F-T-S-D-L-S-I-Q-K(x53)-E-K-R-A-V-Aib-L-F-I-E-W-L-K-A-G-G-P-S-S-G-A-P-P-P-S-NH2] (H-Y[Aib]QGTFTSDLSIQK(Palmitoyl)EKRAV[Aib]LFIEWLKAGGPSSGAPPPS-NH2)	0.176 nM	2.03 nM	0.037 nM
CCCCCCCCCCCCCCCCCC(=O)N[C@@H](CCC(=O)NCCCC[C@H](NC(=O)[C@H](CCC(N)=O)NC(=O)[C@H](CCCCN)NC(=O)[C@H](CO)NC(=O)[C@H](CC(C)C)NC(=O)[C@H](CC(=O)O)NC(=O)[C@H](CO)NC(=O)[C@@H](NC(=O)[C@H](Cc1ccccc1)NC(=O)[C@@H](NC(=O)CNC(=O)[C@H](CCC(N)=O)NC(=O)C(C)(C)NC(=O)[C@@H](N)Cc1ccc(O)cc1)[C@@H](C)O)[C@@H](C)O)C(=O)N[C@@H](CC(=O)O)C(=O)N[C@@H](CCC(=O)O)C(=O)N[C@@H](CCC(=O)O)C(=O)N[C@@H](C)C(=O)N[C@@H](C)C(=O)N[C@@H](CCCNC(=N)N)C(=O)N[C@@H](CC(C)C)C(=O)N[C@@H](Cc1ccccc1)C(=O)N[C@H](C(=O)N[C@@H](CCC(=O)O)C(=O)N[C@@H](Cc1c[nH]c2ccccc12)C(=O)N[C@@H](CC(C)C)C(=O)N[C@@H](CCCCN)C(=O)N[C@@H](C)C(=O)NCC(=O)NCC(=O)N1CCC[C@H]1C(=O)N[C@@H](CO)C(=O)N[C@@H](CO)C(=O)NCC(=O)N[C@@H](C)C(=O)N1CCC[C@H]1C(=O)N1CCC[C@H]1C(=O)N1CCC[C@H]1C(=O)N[C@@H](CO)C(N)=O)[C@@H](C)CC)C(=O)O [SEQ ID NO: 60, Y-Aib-Q-G-T-F-T-S-D-L-S-K-Q-K(yE-x70)-DEEAARLFIEWLKAGGPSSGAPPPS-NH2] (H-Y[Aib]QGTFTSDLSKQK([γGlu-Stearoyl])DEEAARLFIEWLKAGGPSSGAPPPS-NH2)	0.0168 nM	0.0091 nM	0.0053 nM
